Where two headings read alike, the source gives them in different places. No end group written: not given here.
Target: T1, GPR103 E297^6.59A (Homo sapiens, UniProt Q96P65, E297A)
T1 construct: we used human full-length QRFPR-encoding plasmids; expressed in transfected cells; host or cells: HEK293 cells (HEK293A in the flow cytometry section), pCAGGS vector
T1 sequence (Q96P65 1-431 E297A): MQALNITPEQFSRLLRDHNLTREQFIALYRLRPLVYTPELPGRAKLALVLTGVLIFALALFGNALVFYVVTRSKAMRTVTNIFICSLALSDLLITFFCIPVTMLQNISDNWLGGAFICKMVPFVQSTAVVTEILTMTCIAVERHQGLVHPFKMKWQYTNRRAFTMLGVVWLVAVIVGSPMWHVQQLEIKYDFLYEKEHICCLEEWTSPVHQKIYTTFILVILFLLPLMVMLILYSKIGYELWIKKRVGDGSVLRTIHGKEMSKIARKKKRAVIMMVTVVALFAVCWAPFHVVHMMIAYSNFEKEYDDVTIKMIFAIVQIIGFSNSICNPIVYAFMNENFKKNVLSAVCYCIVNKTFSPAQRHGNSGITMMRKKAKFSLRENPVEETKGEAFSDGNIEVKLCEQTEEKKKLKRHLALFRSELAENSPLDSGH
Assay: TGFα shedding assay; Exp. level >WT (1:1)
Type: cell-based

**Q.** How did the Emax (Exp. #1) turn out when TSGPLGNLAEELNGYSRKKGGFSFRF-NH2 [QRFP26] was run?
**A.** Its Emax is 106.77 % WT.

**Q.** What about the Emax (Exp. #2) of the same substance?
**A.** The Emax was 105.91 % WT.

**Q.** What about the Emax (Exp. #3) of the same substance?
**A.** The Emax was 110.91 % WT.

**Q.** What about the Emax (mean, read-out: Emax) of the same substance?
**A.** The Emax was 108%.

**Q.** What about the EC50 (n = 3) of the same substance?
**A.** The EC50 was 28.2 nM.

**Q.** What about the Emax (n = 3, read-out: Emax) of the same substance?
**A.** The Emax was 112 ± 1.3%.

Reference: paper PMC11187126, “Structure and dynamics of the pyroglutamylated RF-amide peptide QRFP receptor GPR103” (Nature Communications, 2024)
